Laboratory results reported in patent US9944611B2, “Polymerizable resins containing a 1,3,5-hexahydro-1,3,5-triazine moiety, methods of making, and dental compositions containing the same” (DENTSPLY SIRONA INC., priority 2013, dated 2018).

Experiment: Solubility of hydroxy-terminated TAT derivatives in water/EtOH (1:1)
Assay type: physicochemical
Text: A sample of each of the examples was then subjected to further characterization and testing, including by NMR, along with pure TAT. The results are summarized in Table 1, which illustrates, among other things, that the increased amounts of DEA improved the solubility: […]

- Solubility in water/EtOH (1:1) @ 25% w/w: insoluble
Compound: C=CC(=O)N1CN(C(=O)C=C)CN(C(=O)C=C)C1 [Parent Sample (TAT), 1,3,5-triacryloyl-hexahydro-1,3,5-triazine]
